Where two headings read alike, the source gives them in different places.
Key:
[1] = design: method as in earlier work; conditions: cited from earlier work
[2] = design: method as in PMID 17805419; conditions: cited from earlier work
[3] = Apparent elimination half-life (HLapp) and phlebotomy efficiency coefficient in treated family members; format: in vivo, human; conditions: family members with regular phlebotomy, except parent
From the text: To evaluate the effect of phlebotomy, versus the expected rate of intrinsic elimination, we graphically and statistically compared the observed decreasing trends in each family member (fitted to a simple exponential decay model) with reference population elimination kinetics. Specifically, for the reference population of occupationally exposed retirees, we considered: i) the 95% confidence interval of the geometric mean elimination rate for each PFAA, and ii) the fastest individual rate of elimination rate among the reference population. For comparative purposes, the concentration of each PFAA in serum on the first day of the intervention was taken as time zero, and the models were forced through this starting point.
One metric that was calculated to compare the efficiency of the phlebotomy for removal of different PFAAs in each family member was termed the phlebotomy efficiency coefficient (EC). This was based on the subtractive difference between HLapp (yrs) in each treated family member and the geometric mean HLin (yrs) of the reference population according to Equation 1 . [drawing 1] (1)

[4] = design: method as in PMID 23980546; conditions: urinary excretion, China, cited from earlier work
[5] = Serum PFAA concentrations in family members during intermittent phlebotomy (HPLC-MS/MS); format: in vivo, human; conditions: for Serum concentration before treatment: before phlebotomy
From the text: After receiving informed consent, intermittent phlebotomy was undertaken at an overall rate (Table 2) that was equal to or less than the maximum rate of what is done for routine blood donations at the Canadian Blood Services: ∼500 ccs of whole blood every 56 days. Frequency and timing of blood removal was not consistent between family members because of their personal availability, success at each time of venesection, and compliance of each participant. […] Mineral supplementation was discussed and was taken by each participant.
All serum samples were submitted to ALS Laboratories (Edmonton, AB) for quantitative analysis of PFAAs (see Supporting Information, S1 Table). Samples were extracted by solid phase extraction and concentrations of PFHxS, PFOS, and PFOA were determined using high performance liquid chromatography/tandem mass spectrometry. Formic acid (0.1 M) along with a mixture of isotopically labeled PFAAs (Wellington Laboratories, Guelph, Ontario) were added to 1.0 mL of serum. The mixture was vortexed, sonicated, and subjected to solid phase extraction. The extract was concentrated to 100 uL and an instrument performance internal standard was added along with 200 uL of 90% 20 mM aqueous acetic acid/10% methanol. Procedural blanks were run with each set of samples, and method limits of quantification (LOQ) were 0.5 ng/mL for each analyte. For the few PFAA levels that fell below this LOQ (shown as hollow circles in Figs. 1–3), LOQ/√2 (i.e. 0.35 ng/mL) was substituted for purposes of data analysis. PFHxS, PFOS, and PFOA levels in all participating family members were >LOQ throughout the intervention except for 3 PFOS measurements out of 16 total measurements in the 3rd child and one PFOA measurement out of 9 total measurements in the […]. Written informed consent was given by participants (or parents in the case of children) for their clinical records to be used in this study.

O=C(O)C(F)(F)C(F)(F)C(F)(F)C(F)(F)C(F)(F)C(F)(F)C(F)(F)F [PFOA, perfluorooctanoic acid]
95th percentile of serum concentration among Canadians ([1]; 2009–2011): 5 ng/mL | median serum concentration among Canadians [1]: 2.7 ng/mL | HLin of fastest eliminator in the reference population ([2]; reference population of occupationally exposed retirees (26 individuals)): 1.5 yrs | 95% confidence interval of the geometric mean HLin ([2]; reference population of occupationally exposed retirees): 3.0–4.1 yrs | HLin, 95% confidence interval ([2]; serum, retirees >55 yrs, previously occupationally exposed): 3.1–4.4 yrs | HLapp compared with geometric mean HLin of reference population [3]: significantly shorter | HLapp ([4]; males and post-menopausal females): 2.6 years | HLapp ([4]; reproductive-aged females): 2.1 years | Serum concentration before treatment ([5]; 1st Child): 4.7 ng/mL | Serum concentration ([5]; 1st Child, sampling date 2009.10.12): 3.5 ng/mL | Serum concentration ([5]; 1st Child, sampling date 2009.12.24): 4.4 ng/mL | Serum concentration ([5]; 1st Child, sampling date 2009.6.9): 4.7 ng/mL | Serum concentration ([5]; 1st Child, sampling date 2009.9.9): 3.9 ng/mL | Serum concentration ([5]; 1st Child, sampling date 2010.10.14): 2.8 ng/mL | Serum concentration ([5]; 1st Child, sampling date 2010.1.17): 4.0 ng/mL | Serum concentration ([5]; 1st Child, sampling date 2010.2.11): 2.0 ng/mL | Serum concentration ([5]; 1st Child, sampling date 2010.4.14): 3.8 ng/mL | Serum concentration ([5]; 1st Child, sampling date 2011.12.5): 1.3 ng/mL | Serum concentration ([5]; 1st Child, sampling date 2011.5.17, LOD=0.5ng/mL): 1.8 ng/mL | Serum concentration ([5]; 1st Child, sampling date 2011.8.12, LOD=0.5ng/mL): 2.7 ng/mL | Serum concentration ([5]; 1st Child, sampling date 2012.12.28, LOD=0.5ng/mL): 1.5 ng/mL | Serum concentration ([5]; 1st Child, sampling date 2012.4.24): 2.3 ng/mL | Serum concentration ([5]; 1st Child, sampling date 2012.8.21): 1.7 ng/mL | Serum concentration ([5]; 1st Child, sampling date 2013.3.30): 1.5 ng/mL | Serum concentration ([5]; 1st Child, sampling date 2013.7.30): 1.2 ng/mL | Serum concentration before treatment ([5]; 2nd Child): 8.7 ng/mL | Serum concentration ([5]; 2nd Child, sampling date 2009.10.24): 5.0 ng/mL | Serum concentration ([5]; 2nd Child, sampling date 2009.6.6): 8.7 ng/mL | Serum concentration ([5]; 2nd Child, sampling date 2009.7.2): 7.1 ng/mL | Serum concentration ([5]; 2nd Child, sampling date 2009.7.30): 9.2 ng/mL | Serum concentration ([5]; 2nd Child, sampling date 2009.8.24): 7.4 ng/mL | Serum concentration ([5]; 2nd Child, sampling date 2009.9.27): 4.5 ng/mL | Serum concentration ([5]; 2nd Child, sampling date 2010.1.3): 4.3 ng/mL | Serum concentration ([5]; 2nd Child, sampling date 2010.2.15): 4.9 ng/mL | Serum concentration ([5]; 2nd Child, sampling date 2011.10.2): 3.7 ng/mL | Serum concentration ([5]; 2nd Child, sampling date 2011.12.24): 3.8 ng/mL | Serum concentration ([5]; 2nd Child, sampling date 2011.4.27): 3.7 ng/mL | Serum concentration ([5]; 2nd Child, sampling date 2011.8.14): 3.6 ng/mL | Serum concentration ([5]; 2nd Child, sampling date 2012.12.24): 3.0 ng/mL | Serum concentration ([5]; 2nd Child, sampling date 2012.4.6): 3.0 ng/mL | Serum concentration ([5]; 2nd Child, sampling date 2013.5.11.): 2.1 ng/mL | Serum concentration ([5]; 2nd Child, sampling date 2013.7.15): 1.9 ng/mL | Serum concentration before treatment ([5]; 3rd Child): 8.2 ng/mL | Serum concentration ([5]; 3rd Child, sampling date 2010.3.12): 6.6 ng/mL | Serum concentration ([5]; 3rd Child, sampling date 2010.5.23): 5.3 ng/mL | Serum concentration ([5]; 3rd Child, sampling date 2011.1.6): 4.2 ng/mL | Serum concentration ([5]; 3rd Child, sampling date 2011.11.26): 2.2 ng/mL | Serum concentration ([5]; 3rd Child, sampling date 2011.2.24): 3.3 ng/mL | Serum concentration ([5]; 3rd Child, sampling date 2011.4.30): 3.0 ng/mL | Serum concentration ([5]; 3rd Child, sampling date 2011.6.13): 3.2 ng/mL | Serum concentration ([5]; 3rd Child, sampling date 2011.9.27): 3.0 ng/mL | Serum concentration ([5]; 3rd Child, sampling date 2012.10.16): 2.1 ng/mL | Serum concentration ([5]; 3rd Child, sampling date 2012.1.8): 2.9 ng/mL | Serum concentration ([5]; 3rd Child, sampling date 2012.12.9): 2.5 ng/mL | Serum concentration ([5]; 3rd Child, sampling date 2012.3.4): 3.2 ng/mL | Serum concentration ([5]; 3rd Child, sampling date 2012.4.28): 3.2 ng/mL | Serum concentration ([5]; 3rd Child, sampling date 2013.2.5): 2.2 ng/mL | Serum concentration ([5]; 3rd Child, sampling date 2013.3.30): 2.2 ng/mL | Serum concentration before treatment ([5]; 4th Child): 6.8 ng/mL | Serum concentration before treatment ([5]; Average of 6 family members): 5.7 ng/mL | Serum concentration before treatment ([5]; Parent one): 3.0 ng/mL | Serum concentration ([5]; Parent one, sampling date 2009.10.11): 1.6 ng/mL | Serum concentration ([5]; Parent one, sampling date 2009.10.12): 2.1 ng/mL | Serum concentration ([5]; Parent one, sampling date 2009.11.12): 2.0 ng/mL | Serum concentration ([5]; Parent one, sampling date 2009.12.14): 2.1 ng/mL | Serum concentration ([5]; Parent one, sampling date 2009.2.2): 3.0 ng/mL | Serum concentration ([5]; Parent one, sampling date 2009.5.18): 2.5 ng/mL | Serum concentration ([5]; Parent one, sampling date 2009.6.1): 3.1 ng/mL | Serum concentration ([5]; Parent one, sampling date 2009.7.4): 2.6 ng/mL | Serum concentration ([5]; Parent one, sampling date 2009.9.1): 2.3 ng/mL | Serum concentration ([5]; Parent one, sampling date 2010.10.10): 2.2 ng/mL | Serum concentration ([5]; Parent one, sampling date 2010.1.17): 2.0 ng/mL | Serum concentration ([5]; Parent one, sampling date 2010.3.13): 2.6 ng/mL | Serum concentration ([5]; Parent one, sampling date 2011.1.6): 1.6 ng/mL | Serum concentration ([5]; Parent one, sampling date 2011.11.26): 0.9 ng/mL | Serum concentration ([5]; Parent one, sampling date 2011.2.24): 1.7 ng/mL | Serum concentration ([5]; Parent one, sampling date 2011.4.30): 1.3 ng/mL | Serum concentration ([5]; Parent one, sampling date 2011.6.22): 1.5 ng/mL | Serum concentration ([5]; Parent one, sampling date 2011.8.4): 1.4 ng/mL | Serum concentration ([5]; Parent one, sampling date 2011.9.27): 1.2 ng/mL | Serum concentration ([5]; Parent one, sampling date 2012..12.28): 1.0 ng/mL | Serum concentration ([5]; Parent one, sampling date 2012.1.14): 1.6 ng/mL | Serum concentration ([5]; Parent one, sampling date 2012.11.1): 1.2 ng/mL | Serum concentration ([5]; Parent one, sampling date 2012.3.4): 1.3 ng/mL | Serum concentration ([5]; Parent one, sampling date 2012.4.29): 1.2 ng/mL | Serum concentration ([5]; Parent one, sampling date 2012.7.8): 1.0 ng/mL | Serum concentration ([5]; Parent one, sampling date 2012.8.21): 1.2 ng/mL | Serum concentration ([5]; Parent one, sampling date 2013.10.27): 1.2 ng/mL | Serum concentration ([5]; Parent one, sampling date 2013.2.18): 1.2 ng/mL | Serum concentration ([5]; Parent one, sampling date 2013.3.30): 1.1 ng/mL | Serum concentration ([5]; Parent one, sampling date 2013.5.11): 1.0 ng/mL | Serum concentration ([5]; Parent one, sampling date 2013.7.15): 1.0 ng/mL | Serum concentration ([5]; Parent one, sampling date 2013.9.8): 0.9 ng/mL | Serum concentration before treatment ([5]; Parent two): 2.5 ng/mL | Serum concentration ([5]; Parent two, sampling date 2009.6.1): 2.5 ng/mL | Serum concentration ([5]; Parent two, sampling date 2009.7.7): 1.8 ng/mL | Serum concentration ([5]; Parent two, sampling date 2009.8.24): 1.6 ng/mL | Serum concentration ([5]; Parent two, sampling date 2010.1.3): 1.3 ng/mL | Serum concentration ([5]; Parent two, sampling date 2012.3.13): 1.3 ng/mL | Serum concentration ([5]; Parent two, sampling date 2013.1.1): 1.0 ng/mL | Serum concentration ([5]; Parent two, sampling date 2013.10.6): 0.9 ng/mL | Serum concentration ([5]; Parent two, sampling date 2013.6.22): 1.1 ng/mL
